Results as given in ChEMBL document CHEMBL5370600, “Oxindole and Benzoxazinone Alkaloids from the Seeds of Persea americana (Avocado) and Their SIRT1 Stimulatory Activity” (J Nat Prod, 2023).
The source made the active and inactive calls. No cut-off for these calls is given here.

What was measured:
[1] = test system: HEK293; experiment: Cytotoxicity against HEK293 cells at 20 uM incubated for 24 hrs by MTT assay; assay type: toxicity, cell-based; settings: human, hek293, 24 h
[2] = target: T1, NAD-dependent protein deacetylase sirtuin-1 (Homo sapiens) (UniProt Q96EB6); experiment: Activation of SIRT1 deacetylation (unknown origin) transfected in HEK293 cells cotransfected with PG13-Luc/myc-tagged p53/flag-tagged Sirt1/RSV-beta-galactosidase assessed as decrease in luciferase activity at 10 uM incubated for 24 hrs by firefly luciferase assay; assay type: cell-based
T1 sequence (whole entry): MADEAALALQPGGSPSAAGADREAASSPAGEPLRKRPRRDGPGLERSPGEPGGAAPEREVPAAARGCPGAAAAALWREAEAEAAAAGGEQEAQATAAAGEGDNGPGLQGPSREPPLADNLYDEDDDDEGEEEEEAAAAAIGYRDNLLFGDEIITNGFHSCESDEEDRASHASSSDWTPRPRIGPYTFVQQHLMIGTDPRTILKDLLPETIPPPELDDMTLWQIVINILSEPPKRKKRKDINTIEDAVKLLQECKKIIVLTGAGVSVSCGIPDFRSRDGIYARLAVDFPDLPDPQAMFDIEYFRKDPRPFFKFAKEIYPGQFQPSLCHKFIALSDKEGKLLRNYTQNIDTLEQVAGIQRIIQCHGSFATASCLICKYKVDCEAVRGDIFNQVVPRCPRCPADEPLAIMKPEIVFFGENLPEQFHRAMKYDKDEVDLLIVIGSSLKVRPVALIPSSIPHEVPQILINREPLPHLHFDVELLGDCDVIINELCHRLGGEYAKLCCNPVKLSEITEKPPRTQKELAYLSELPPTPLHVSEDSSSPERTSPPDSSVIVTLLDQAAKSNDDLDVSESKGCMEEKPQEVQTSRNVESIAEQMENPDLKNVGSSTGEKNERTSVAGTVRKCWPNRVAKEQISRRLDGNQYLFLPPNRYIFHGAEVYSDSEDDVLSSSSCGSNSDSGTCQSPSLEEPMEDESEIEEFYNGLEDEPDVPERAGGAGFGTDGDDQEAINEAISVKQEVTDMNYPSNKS

[3] = target: T1, NAD-dependent protein deacetylase sirtuin-1 (Homo sapiens); experiment: Activation of SIRT1 deacetylation (unknown origin) transfected in HEK293 cells cotransfected with PG13-Luc/myc-tagged p53/flag-tagged Sirt1/RSV-beta-galactosidase assessed as decrease in luciferase activity at 20 uM incubated for 24 hrs by firefly luciferase assay relative to control; assay type: cell-based; design: scale not given: the % may be the effect or the level left; settings: filed as activator
[4] = target: T1, NAD-dependent protein deacetylase sirtuin-1 (Homo sapiens); experiment: Activation of SIRT1 deacetylation (unknown origin) in flag tagged Sirt1 overexpressed HEK293 cells assessed as increase in NAD+/NADH ratio incubated for 12 hrs by fluorescence microplate reader analysis; assay type: cell-based; settings: filed as activator, dose 10-20 µM
[5] = target: T1, NAD-dependent protein deacetylase sirtuin-1 (Homo sapiens); experiment: Activation of SIRT1 deacetylation (unknown origin) transfected in HEK293 cells cotransfected with PG13-Luc/myc-tagged p53/flag-tagged Sirt1/RSV-beta-galactosidase assessed as decrease in luciferase activity incubated for 24 hrs by firefly luciferase assay; assay type: cell-based; settings: filed as activator, dose 10-20 µM

SMILES	Activity [1]	also measured
O=C(C[C@@]1(O)C(=O)Nc2ccccc21)OC[C@H]1O[C@@H](OCCc2ccc(O)cc2)[C@H](O)[C@@H](O)[C@@H]1O	Non-Toxic	
O=C(C[C@@H]1C(=O)Nc2ccccc21)OC[C@H]1O[C@@H](OCCc2ccc(O)c(O)c2)[C@H](O)[C@@H](O)[C@@H]1O	Non-Toxic	
CO[C@@]1(CC(=O)OC[C@H]2O[C@@H](OCCc3ccc(O)cc3)[C@H](O)[C@@H](O)[C@@H]2O)OC(=O)Nc2ccccc21	Non-Toxic	
CO[C@]1(CC(=O)OC[C@H]2O[C@@H](OCCc3ccc(O)cc3)[C@H](O)[C@@H](O)[C@@H]2O)OC(=O)Nc2ccccc21	Non-Toxic	
O=C(C[C@H]1C(=O)Nc2ccccc21)OC[C@H]1O[C@@H](OCCc2ccc(O)cc2)[C@H](O)[C@@H](O)[C@@H]1O	Non-Toxic	Activity [2]: inactive; Activity [3]: 65%
CC1=CC[C@@H](C(C)(C)O[C@@H]2O[C@H](CO)[C@@H](O)[C@H](O)[C@H]2O)CC1	Non-Toxic	
O=C(C[C@H]1C(=O)Nc2ccccc21)OC[C@H]1O[C@@H](OCCc2ccc(O)c(O)c2)[C@H](O)[C@@H](O)[C@@H]1O	Non-Toxic	
O=C(C[C@@H]1C(=O)Nc2ccccc21)OC[C@H]1O[C@@H](OCCc2ccc(O)cc2)[C@H](O)[C@@H](O)[C@@H]1O	Non-Toxic	Activity [4]: Dose-Dependent Effect; Activity ([2]; filed as activator): Active; Activity [5]: Dose-Dependent Effect; Activity [3]: 45%
O=C(C[C@]1(O)C(=O)Nc2ccccc21)OC[C@H]1O[C@@H](OCCc2ccc(O)cc2)[C@H](O)[C@@H](O)[C@@H]1O	Non-Toxic	
OC[C@@H](O)[C@@H](O)[C@H](O)[C@H](O)[C@@H](O)CO	Non-Toxic	
O=C(/C=C1/C(=O)Nc2ccccc21)OC[C@H]1O[C@@H](OCCc2ccc(O)cc2)[C@H](O)[C@@H](O)[C@@H]1O	Non-Toxic	
